Laboratory results: patent publication US11591604B2, “Gene expression in Bacteroides” (Massachusetts Institute of Technology, priority 2015, dated 2023)

The substances below were run on NanoLuc (assay: NanoLuc luciferase reporter expression from constitutive promoters and RBSs integrated with pNBU2). Settings: RBS combined with promoter PBT1311, NanoLuc reporter, three biological replicates.
Assay type: cell-based, B. thetaiotaomicron
Text: FIGS. 1A-1G. Genetic parts to control expression in B. thetaiotaomicron. (FIG. 1A) The ranges of gene expression are shown for the different gene regulation systems provided herein. (FIG. 1B) IntN2 catalyzes stable integration of pNBU2-based expression constructs into one of two attBT2 sites in the B. thetaiotaomicron genome. The two attBT2 sites (attBT2-1 at nucleotide (nt) 6,217,227 and attBT2-2 at nt 6,138,320) are in the 3′ ends of tRNA^Ser genes (BT_t71 and BT_t70, respectively). (FIG. 1C) Constitutive promoters and ribosome binding sites for the construction of gene expression libraries. The putative −33 and −7 regions of the PBT1311 promoter, the Shine-Delgarno sequence, and the start codon are indicated by black boxes. Numbers below the black boxes represent nucleotide locations relative the PBT1311 transcription start site. The 26 nt sequences introduced in the PAM promoters are shown (see also FIGS. 6A-6B). Numbers at the edges of the boxes indicate the PBT1311 nucleotides replaced or the insertion site within the promoter. The location of residues randomized in the rpiL* RBS library are indicated with gray arrows (for library A: nt −14, −13, −12; for library B: nt −21, −18, −15; and for library C: nt −17, −16, −11; nt numbering is relative to the translation start site). (FIG. 1D) Activity was measured for a set of constitutive promoters and their cognate RBSs. Furthermore, a set of constitutive promoters (PBT1311, PAM1, PAM2, PAM3, PAM4) was combined with RBSs of varying strengths. Gene expression was measured using a luciferase reporter (NanoLuc). (FIG. 1E) Three large RBS libraries were constructed and combined with promoter PBT1311 to span 10^3-fold in gene expression. For reference, the parent rpiL* RBS is indicated with a black arrow. For D and E, error bars represent the standard deviation of three independent biological replicates made on separate days. (FIG. 1F) The strength of each RBS was compared to the predicted free energy of folding for the mRNA (ΔGfold,). (FIG. 1G) Strong (SEQ ID NO: 210) and weak (SEQ ID NO: 211) consensus sequences for the rpiL* −21 to −11 RBS region targeted by mutagenesis (residue locations are stated relative to the translation start site) are provided. Frequency logos were generated for the 11 strongest and 11 weakest RBSs by comparing the frequency of each nucleotide at each position in that group with the frequency of that nucleotide in that position in the full library. Position −20 and −19 were not randomized and are thus are not shown in the frequency logos.
All genetic parts in this study were characterized using the integration vector pNBU2 to ensure genetic stability of the constructs (FIG. 1B). The pNBU2 plasmid encodes the intN2 tyrosine integrase, which mediates sequence-specific recombination between the attN site of pNBU2 and one of two attBT sites located in the 3′ ends of the two tRNA^Ser genes, BT_t70 and BT_t71, on the B. thetaiotaomicron chromosome (FIG. 1B). Insertion of the pNBU2 plasmid inactivates the tRNA^Ser gene, and simultaneous insertion into both BT_t70 and BT_t71 is unlikely due to the essentiality of tRNA^Ser. pNBU2-based vectors have been used for single-copy complementation in B. thetaiotaomicron in in vitro studies (Koropatkin N M et al. Nat. Rev. Microbiol. 10:323-35, 2012) and in vivo mouse models (Martens E C et al. Cell Host Microbe 4:447-57, 2008).
B. thetaiotaomicron genetic parts were characterized with NanoLuc luciferase (Hall M P et al. ACS Chem. Biol. 7:1848-1857, 2012), which is a small (19 kDa) modified shrimp luciferase. Efforts to use members of the green fluorescent protein family and a FMN-based fluorescent reporter were not successful. NanoLuc oxidizes the exogenously-added substrate furimazine to produce glow-type bioluminescence (Emax=460 nm) with a signal half-life of 2 hr. […]
In the case of “A39: RBS, SEQ ID NO: 116 (DNA TCCCGCATTTTAAAATAAAATAAATTATTGTTTTATTTAAACGAAT; chemistry not fully specified)”, the “Average Luminescence (RLU/CFU)” value was 0.003302 RLU/CFU. For “A40: RBS, SEQ ID NO: 118 (DNA TCCCGCATTTTAAAATAAAATAAATTATTTGTTTATTTAAACGAAT; chemistry not fully specified)”, the “Average Luminescence (RLU/CFU)” value was 0.002992 RLU/CFU. With “A41: RBS, SEQ ID NO: 123 (DNA TCCCGCATTTTAAAATAAAATAAATTATTATTTTATTTAAACGAAT; chemistry not fully specified)” the “Average Luminescence (RLU/CFU)” value was 0.002417 RLU/CFU. In the case of “A42: RBS, SEQ ID NO: 130 (DNA TCCCGCATTTTAAAATAAAATAAATTATTGGTTTACTTAAACGAAT; chemistry not fully specified)”, the “Average Luminescence (RLU/CFU)” value was 0.001478 RLU/CFU. For “A43: RBS, SEQ ID NO: 131 (DNA TCCCGCATTTTAAAATAAAATAAATTATTCGTTTAATTAAACGAAT; chemistry not fully specified)”, the “Average Luminescence (RLU/CFU)” value was 0.001461 RLU/CFU. For “A44: RBS, SEQ ID NO: 135 (DNA TCCCGCATTTTAAAATAAAATAAATTATTCGTTTATTTAAACGAAT; chemistry not fully specified)”, the “Average Luminescence (RLU/CFU)” value was 0.0006478 RLU/CFU. In the case of “A45: RBS, SEQ ID NO: 137 (DNA TCCCGCATTTTAAAATAAAATAAATTATTCGTTTACTTAAACGAAT; chemistry not fully specified)”, the “Average Luminescence (RLU/CFU)” value was 0.0005331 RLU/CFU. In the case of “B1: RBS, SEQ ID NO: 1 (DNA TCCCGCATTTTAAAATAAAATAAATTATTCGTTTAGTTAAACGAAT; chemistry not fully specified)”, the “Average Luminescence (RLU/CFU)” value was 0.09025 RLU/CFU. In the case of “B2: RBS, SEQ ID NO: 2 (DNA TCCCGCATTTTAAAATAAAATAAATGATATAATTAATTAAACGAAT; chemistry not fully specified)”, the “Average Luminescence (RLU/CFU)” value was 0.06325 RLU/CFU. “B3: RBS, SEQ ID NO: 3 (DNA TCCCGCATTTTAAAATAAAATAAATAATATAATTAATTAAACGAAT; chemistry not fully specified)” was tested, and the “Average Luminescence (RLU/CFU)” value was 0.06083 RLU/CFU. With “B4: RBS, SEQ ID NO: 4 (DNA TCCCGCATTTTAAAATAAAATAAATAATTTAATTAATTAAACGAAT; chemistry not fully specified)” the “Average Luminescence (RLU/CFU)” value was 0.05153 RLU/CFU. For “B5: RBS, SEQ ID NO: 5 (DNA TCCCGCATTTTAAAATAAAATAAATTATATAATTAATTAAACGAAT; chemistry not fully specified)”, the “Average Luminescence (RLU/CFU)” value was 0.04825 RLU/CFU. For “B6: RBS, SEQ ID NO: 6 (DNA TCCCGCATTTTAAAATAAAATAAATAATATACTTAATTAAACGAAT; chemistry not fully specified)”, the “Average Luminescence (RLU/CFU)” value was 0.04723 RLU/CFU. In the case of “B7: RBS, SEQ ID NO: 8 (DNA TCCCGCATTTTAAAATAAAATAAATAATCTACTTAATTAAACGAAT; chemistry not fully specified)”, the “Average Luminescence (RLU/CFU)” value was 0.04704 RLU/CFU. With “B8: RBS, SEQ ID NO: 9 (DNA TCCCGCATTTTAAAATAAAATAAATTATTTAATTAATTAAACGAAT; chemistry not fully specified)” the “Average Luminescence (RLU/CFU)” value was 0.04684 RLU/CFU. In the case of “B9: RBS, SEQ ID NO: 10 (DNA TCCCGCATTTTAAAATAAAATAAATTATCTAATTAATTAAACGAAT; chemistry not fully specified)”, the “Average Luminescence (RLU/CFU)” value was 0.04634 RLU/CFU. With “B10: RBS, SEQ ID NO: 12 (DNA TCCCGCATTTTAAAATAAAATAAATTATATATTTAATTAAACGAAT; chemistry not fully specified)” the “Average Luminescence (RLU/CFU)” value was 0.04421 RLU/CFU. For “B11: RBS, SEQ ID NO: 18 (DNA TCCCGCATTTTAAAATAAAATAAATAATGTAATTAATTAAACGAAT; chemistry not fully specified)”, the “Average Luminescence (RLU/CFU)” value was 0.03308 RLU/CFU. For “B12: RBS, SEQ ID NO: 22 (DNA TCCCGCATTTTAAAATAAAATAAATAATATATTTAATTAAACGAAT; chemistry not fully specified)”, the “Average Luminescence (RLU/CFU)” value was 0.03108 RLU/CFU. In the case of “B13: RBS, SEQ ID NO: 25 (DNA TCCCGCATTTTAAAATAAAATAAATGATTTAATTAATTAAACGAAT; chemistry not fully specified)”, the “Average Luminescence (RLU/CFU)” value was 0.02746 RLU/CFU. With “B14: RBS, SEQ ID NO: 26 (DNA TCCCGCATTTTAAAATAAAATAAATTATCTATTTAATTAAACGAAT; chemistry not fully specified)” the “Average Luminescence (RLU/CFU)” value was 0.02715 RLU/CFU. For “B15: RBS, SEQ ID NO: 27 (DNA TCCCGCATTTTAAAATAAAATAAATGATTTACTTAATTAAACGAAT; chemistry not fully specified)”, the “Average Luminescence (RLU/CFU)” value was 0.02695 RLU/CFU. With “B16: RBS, SEQ ID NO: 28 (DNA TCCCGCATTTTAAAATAAAATAAATTATATACTTAATTAAACGAAT; chemistry not fully specified)” the “Average Luminescence (RLU/CFU)” value was 0.02683 RLU/CFU. For “B17: RBS, SEQ ID NO: 30 (DNA TCCCGCATTTTAAAATAAAATAAATAATTTAGTTAATTAAACGAAT; chemistry not fully specified)”, the “Average Luminescence (RLU/CFU)” value was 0.0259 RLU/CFU. For “B18: RBS, SEQ ID NO: 35 (DNA TCCCGCATTTTAAAATAAAATAAATAATGTAGTTAATTAAACGAAT; chemistry not fully specified)”, the “Average Luminescence (RLU/CFU)” value was 0.02291 RLU/CFU. With “B19: RBS, SEQ ID NO: 42 (DNA TCCCGCATTTTAAAATAAAATAAATTATGTATTTAATTAAACGAAT; chemistry not fully specified)” the “Average Luminescence (RLU/CFU)” value was 0.02048 RLU/CFU. “B20: RBS, SEQ ID NO: 52 (DNA TCCCGCATTTTAAAATAAAATAAATGATCTAATTAATTAAACGAAT; chemistry not fully specified)” was tested, and the “Average Luminescence (RLU/CFU)” value was 0.01676 RLU/CFU. “B21: RBS, SEQ ID NO: 53 (DNA TCCCGCATTTTAAAATAAAATAAATGATATATTTAATTAAACGAAT; chemistry not fully specified)” was tested, and the “Average Luminescence (RLU/CFU)” value was 0.01613 RLU/CFU. With “B22: RBS, SEQ ID NO: 55 (DNA TCCCGCATTTTAAAATAAAATAAATCATGTAATTAATTAAACGAAT; chemistry not fully specified)” the “Average Luminescence (RLU/CFU)” value was 0.01599 RLU/CFU. “B23: RBS, SEQ ID NO: 61 (DNA TCCCGCATTTTAAAATAAAATAAATAATCTATTTAATTAAACGAAT; chemistry not fully specified)” was tested, and the “Average Luminescence (RLU/CFU)” value was 0.01464 RLU/CFU. For “B24: RBS, SEQ ID NO: 62 (DNA TCCCGCATTTTAAAATAAAATAAATCATTTATTTAATTAAACGAAT; chemistry not fully specified)”, the “Average Luminescence (RLU/CFU)” value was 0.01427 RLU/CFU. With “B25: RBS, SEQ ID NO: 63 (DNA TCCCGCATTTTAAAATAAAATAAATGATTTAGTTAATTAAACGAAT; chemistry not fully specified)” the “Average Luminescence (RLU/CFU)” value was 0.01415 RLU/CFU. In the case of “B26: RBS, SEQ ID NO: 68 (DNA TCCCGCATTTTAAAATAAAATAAATTATTTAGTTAATTAAACGAAT; chemistry not fully specified)”, the “Average Luminescence (RLU/CFU)” value was 0.01271 RLU/CFU. With “B27: RBS, SEQ ID NO: 74 (DNA TCCCGCATTTTAAAATAAAATAAATGATATAGTTAATTAAACGAAT; chemistry not fully specified)” the “Average Luminescence (RLU/CFU)” value was 0.009815 RLU/CFU. In the case of “B28: RBS, SEQ ID NO: 77 (DNA TCCCGCATTTTAAAATAAAATAAATTATGTAGTTAATTAAACGAAT; chemistry not fully specified)”, the “Average Luminescence (RLU/CFU)” value was 0.009593 RLU/CFU. In the case of “B29: RBS, SEQ ID NO: 80 (DNA TCCCGCATTTTAAAATAAAATAAATTATATAGTTAATTAAACGAAT; chemistry not fully specified)”, the “Average Luminescence (RLU/CFU)” value was 0.009478 RLU/CFU.

Same assay, conditions: set of 8 RBSs, under control of PBT1311, NanoLuc reporter
For “B1: RBS, SEQ ID NO: 1 (DNA TCCCGCATTTTAAAATAAAATAAATTATTCGTTTAGTTAAACGAAT; chemistry not fully specified)”, the “Expression Level (RLU/CFU)” value was 9.02E-02 RLU/CFU.
